# Test results reported in paper PMC11485011 (Chemical Science, 2024).
# Molecular target: hCB2R (Homo sapiens, UniProt P34972)
# Type: cell-based
# Details: 5 µM inhibitor, 90 min preincubation; probes 12, 15, 18; hCB2R CHO cells
# Chain of hCB2R (P34972 whole entry): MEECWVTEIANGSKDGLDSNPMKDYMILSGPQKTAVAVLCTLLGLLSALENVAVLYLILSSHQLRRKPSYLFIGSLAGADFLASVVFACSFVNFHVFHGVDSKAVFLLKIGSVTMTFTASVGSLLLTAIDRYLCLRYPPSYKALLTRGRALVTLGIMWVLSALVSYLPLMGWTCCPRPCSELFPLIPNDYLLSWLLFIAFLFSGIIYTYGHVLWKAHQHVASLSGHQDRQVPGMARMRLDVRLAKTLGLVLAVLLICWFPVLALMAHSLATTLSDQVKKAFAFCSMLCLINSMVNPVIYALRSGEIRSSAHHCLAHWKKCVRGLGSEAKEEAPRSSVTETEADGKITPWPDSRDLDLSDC
smiles,measurement,value
CC(C)(C)c1nc(N2CC[C@H](O)C2)c2nnn(Cc3nnnn3C3CC3)c2n1 [RO6871304],blocking of fluorescent probe staining,completely blocked the staining
